Values of other authors as cited in US20100267730A1, “NOVEL COMPOUNDS” (priority 2008, published 2010).

Assays:
freely-feeding rats = conditions: central administration, 4 hour time period
orexin receptors = conditions: central administration at the onset of the normal sleep period, rat sleep/EEG

For “orexin-A: ligand (agonist) of the orexin receptors; human Orexin-A amino acid sequence SEQ ID NO: 1 (EPLPDCCRQKTCSCRLYELLHGAGNHAAGILTL; Homo sapien)”, the “increase in food intake over control rats receiving vehicle” value (freely-feeding rats) is listed as “approximately four-fold” and the effect on arousal (orexin receptors) is listed as “dose-related increase in arousal”.
